Laboratory results reported in patent publication US20070172957A1, “Methods of identifying anti-inflammatory macrolides” (TAISHO PHARMACEUTICAL CO., LTD., priority 2004, published 2007).

Tested on: genes predictive for the anti-inflammatory macrolide effect
Assay: Genes statistically predictive of Clari response: differentially expressed with Clari but not the inactive macrolides MAA or Josa (Appendix E)
Assay type: cell-based
Text: In the case of the above-mentioned (i) related to arachidonic acid biosynthesis, specifically, methods of the embodiment involve assaying whether a test macrolide alters biosynthesis of arachidonic acid, alters the expression or activities of enzymes involved in the biosynthesis or activation of arachidonic acid (e.g., arachidonic acid CoA synthetase, delta-6 desaturase, fatty acid elongase, and delta-5 desaturase, AA-related genes in Tables 2 and 3), or alters the expression of genes identified as predictive for the anti-inflammatory macrolide effect (Appendix E). Assays in which arachidonic acid or gene expression or enzymatic activity is detected can be carried out after contacting a cell with a test macrolide. Any cell line that secretes prostaglandin or produces arachidonic acid can be used. Epithelial and macrophages lines (e.g., A549 or THP-1) are suitable for this purpose; other cell lines can be identified by carrying out assays such as those described in the specific Examples, below. Alternatively, screening assays can be carried out after adding a test macrolide to an in vitro cell system (e.g., a cellular extract or liver microsome preparation) or an in vitro enzyme assay system.

CO[C@@H]1[C@@H](O[C@@H]2O[C@H](C)[C@@H](O[C@H]3C[C@@](C)(O)[C@@H](OC(=O)CC(C)C)[C@H](C)O3)[C@H](N(C)C)[C@H]2O)[C@@H](CC=O)C[C@@H](C)[C@@H](O)/C=C/C=C/C[C@@H](C)OC(=O)C[C@H]1OC(C)=O [josamycin]
group mean, gene SERPING1 (SpotID 46579, MAA and Josa vs. Clari): 1.03 | group mean, gene C12orf8 (SpotID 46586, MAA and Josa vs. Clari): 0.98 | mean group, FLJ20699 (SpotID 46633, pooled group mean): 1.00 | mean group, ARHGAP1 (SpotID 46648, pooled group mean): 1.07 | group mean, gene KIAA1172 (SpotID 46679, MAA and Josa vs. Clari): 1.04 | mean group, KIAA1172 (SpotID 46679, pooled group mean): 1.04 | group mean, gene MKNK2 (SpotID 46825, MAA and Josa vs. Clari): 0.94 | mean group, MKNK2 (SpotID 46825, pooled group mean): 0.94 | group mean, gene PRKAR1A (SpotID 46838, MAA and Josa vs. Clari): 1.04 | group mean, gene ARHGDIA (SpotID 46843, MAA and Josa vs. Clari): 1.08 | mean group, ARHGDIA (SpotID 46843, pooled group mean): 1.08 | group mean, gene HEXA (SpotID 46882, MAA and Josa vs. Clari): 0.97 | group mean, gene CDIPT (SpotID 46896, MAA and Josa vs. Clari): 0.91 | mean group, CDIPT (SpotID 46896, pooled group mean): 0.91 | mean group, PACE (SpotID 46923, pooled group mean): 1.00 | group mean, gene METAP2 (SpotID 46935, MAA and Josa vs. Clari): 1.05 | mean group, METAP2 (SpotID 46935, pooled group mean): 1.05 | group mean, gene HSPBP1 (SpotID 46979, MAA and Josa vs. Clari): 1.02 | mean group, EREG (SpotID 46988, pooled group mean): 1.11 | group mean, gene TFPI2 (SpotID 46991, MAA and Josa vs. Clari): 1.00 | group mean, gene C2orf3 (SpotID 47034, MAA and Josa vs. Clari): 1.01 | mean group, C2orf3 (SpotID 47034, pooled group mean): 1.01 | group mean, gene NFRKB (SpotID 47056, MAA and Josa vs. Clari): 0.96 | group mean, gene GOLGB1 (SpotID 47111, MAA and Josa vs. Clari): 1.01 | group mean, gene MCM2 (SpotID 47123, MAA and Josa vs. Clari): 0.97 | group mean, gene KIAA0251 (SpotID 47131, MAA and Josa vs. Clari): 0.92 | group mean, gene ARHGAP1 (SpotID 47192, MAA and Josa vs. Clari): 1.10 | group mean, gene ITGB5 (SpotID 47212, MAA and Josa vs. Clari): 0.94 | mean group, NUBP1 (SpotID 47241, pooled group mean): 1.04 | group mean, gene AKR1A1 (SpotID 47249, MAA and Josa vs. Clari): 0.93 | group mean, gene HKE4 (SpotID 47251, MAA and Josa vs. Clari): 0.94 | mean group, EPOR (SpotID 47314, pooled group mean): 0.99 | group mean, gene ADAM11 (SpotID 47352, MAA and Josa vs. Clari): 0.93 | mean group, ADAM11 (SpotID 47352, pooled group mean): 0.93 | group mean, gene ERF (SpotID 47354, MAA and Josa vs. Clari): 1.15 | mean group, P4HB (SpotID 47366, pooled group mean): 1.05 | group mean, gene MTHFD1 (SpotID 47406, MAA and Josa vs. Clari): 1.12 | mean group, CETN2 (SpotID 47415, pooled group mean): 1.06 | group mean, gene SNK (SpotID 47418, MAA and Josa vs. Clari): 1.03 | mean group, SNK (SpotID 47418, pooled group mean): 1.03 | mean group, GCS1 (SpotID 47432, pooled group mean): 0.90 | group mean, gene DCTN1 (SpotID 47439, MAA and Josa vs. Clari): 1.04 | mean group, DCTN1 (SpotID 47439, pooled group mean): 1.04 | group mean, gene RANBP1 (SpotID 47446, MAA and Josa vs. Clari): 1.04 | mean group, RANBP1 (SpotID 47446, pooled group mean): 1.04 | mean group, MSH3 (SpotID 47504, pooled group mean): 1.09 | mean group, SERPINA1 (SpotID 47522, pooled group mean): 1.04 | group mean, gene PTK2B (SpotID 47524, MAA and Josa vs. Clari): 1.34 | group mean, gene ARHGDIA (SpotID 47535, MAA and Josa vs. Clari): 1.08 | group mean, gene TRAP1 (SpotID 47622, MAA and Josa vs. Clari): 1.09 | mean group, TRAP1 (SpotID 47622, pooled group mean): 1.09 | group mean, gene HSPA9B (SpotID 47661, MAA and Josa vs. Clari): 1.10 | mean group, NR4A2 (SpotID 47679, pooled group mean): 0.95 | group mean, gene HSPA9B (SpotID 47694, MAA and Josa vs. Clari): 1.09 | mean group, HSPA9B (SpotID 47694, pooled group mean): 1.09 | group mean, gene MAD4 (SpotID 47705, MAA and Josa vs. Clari): 0.97 | group mean, gene NBS1 (SpotID 47754, MAA and Josa vs. Clari): 1.18 | mean group, NBS1 (SpotID 47754, pooled group mean): 1.18 | group mean, gene KIAA1922 (SpotID 47755, MAA and Josa vs. Clari): 1.14 | group mean, gene POLA (SpotID 47776, MAA and Josa vs. Clari): 1.02 | mean group, POLA (SpotID 47776, pooled group mean): 1.02 | group mean, gene BET3 (SpotID 47793, MAA and Josa vs. Clari): 0.95 | group mean, gene GOT1 (SpotID 47802, MAA and Josa vs. Clari): 1.02 | mean group, GOT1 (SpotID 47802, pooled group mean): 1.02 | group mean, gene ENTPD6 (SpotID 47811, MAA and Josa vs. Clari): 0.93 | mean group, ENTPD6 (SpotID 47811, pooled group mean): 0.93 | mean group, SSI-1 (SpotID 47846, pooled group mean): 1.03 | group mean, gene PRLR (SpotID 47850, MAA and Josa vs. Clari): 1.09 | mean group, PRLR (SpotID 47850, pooled group mean): 1.09 | group mean, gene ERF (SpotID 47898, MAA and Josa vs. Clari): 1.14 | group mean, gene YWHAE (SpotID 47911, MAA and Josa vs. Clari): 1.04 | group mean, gene CCNE2 (SpotID 47926, MAA and Josa vs. Clari): 0.98 | group mean, gene P4HA1 (SpotID 47935, MAA and Josa vs. Clari): 0.95 | mean group, P4HA1 (SpotID 47935, pooled group mean): 0.95 | group mean, gene CTSB (SpotID 47937, MAA and Josa vs. Clari): 0.98 | group mean, gene INPP5E (SpotID 47939, MAA and Josa vs. Clari): 0.99 | group mean, gene SF3B3 (SpotID 47947, MAA and Josa vs. Clari): 1.10
